Results on nine compounds are retold here after ChEMBL document CHEMBL5042510, “Structure-Guided Discovery of Aminoquinazolines as Brain-Penetrant and Selective LRRK2 Inhibitors” (J Med Chem, 2022).

Each structure is given as a SMILES string.

What is called MRT is the average time that molecules of a dose stay in the body. As a reminder, the clearance is the rate of elimination divided by the concentration. Lower therefore signals inefficient removal. As usually defined, the efflux ratio is the permeability from basolateral to apical divided by that in the opposite direction, in the common usage. In general, IC50 refers to the concentration that inhibits the measured activity by half. A word on the Papp A→B: it is how fast a substance crosses the layer from the apical side. For orientation: bioavailability means the share of a dose that reaches the circulation, judged against a reference dose that is usually intravenous. A lower bioavailability goes with poor availability. The term logD denotes the decadic logarithm of the distribution of all forms, ionised or not, between an organic phase and buffer at a given pH. A high value points to higher lipophilicity. Broadly, the pKa is the pH at which an ionisable group is half protonated. A low value points to a group that gives up its proton readily.

Series [1] in a line: MRT in Wistar Han rat at 0.1 mg/kg, iv by LC-MS/MS analysis. It is filed as ADME, organism-based. The following applies: in vivo.
The subject of series [2] is Leucine-rich repeat serine/threonine-protein kinase 2 (Homo sapiens), Q5S007 [G2019S]. Put plainly: Inhibition of LRRK2 […] mutant expressed in human SH-SY5Y cells assessed as unbound concentration required for inhibition of phosphorylation of LRRK2 at Ser935 residue incubated for 90 mins by MSD assay. Type of series: cell-based.
A short description of series [3]: Total plasma clearance in Wistar Han rat at 0.1 mg/kg, iv by LC-MS/MS analysis. Type of series: ADME, organism-based.
The subject of series [4] is rat Mdr1a (P-gp). The series can be described thus: Efflux ratio of apparent permeability across basolateral to apical side over apical to basolateral side in rat Mdr1a-transfected pig LLC-PK1 cells at 0.1 to 1 uM measured after 3 hrs by LC/MS/MS analysis. Type of series: ADME, cell-based, Sus scrofa. Particulars: dose 0.1-1 µM.
The nature of series [5]: Intrinsic clearance in Wistar Han rat at 0.1 mg/kg, iv by LC-MS/MS analysis. It is filed as ADME, organism-based. The following applies: in vivo.
Series [6] concerns the target Leucine-rich repeat serine/threonine-protein kinase 2 (Homo sapiens, UniProt Q5S007, G2019S). The series can be described thus: Inhibition of recombinant N-terminal GST-fused LRRK2 […] mutant (970 to 2527 residues) (unknown origin) preincubated with enzyme for 15 mins followed by fluorescein-labeled LRRKtide peptide substrate and ATP addition for 90 mins by TR-FRET assay.

Series [7] is described as follows: Intrinsic clearance in rat hepatocytes at 0.3 uM incubated for 90 mins by LC/MS/MS analysis. Type of series: ADME, cell-based, Hepatocyte. Particulars: read-out: CLH.
Series [8] has as its target Voltage-gated inwardly rectifying potassium channel KCNH2 (Homo sapiens, UniProt Q12809). Put plainly: Inhibition of human ERG by voltage clamp assay. It is filed as toxicity.
A short description of series [9]: Intrinsic clearance in human hepatocytes at 0.3 uM incubated for 90 mins by LC/MS/MS analysis. Type of series: ADME, cell-based, Hepatocyte. The following applies: read-out: CLH.
Series [10] deals with rat Mdr1a (P-gp). The series can be described thus: Apparent permeability from apical to basolateral side in rat Mdr1a-transfected pig LLC-PK1 cells at 0.1 to 1 uM measured after 3 hrs by LC/MS/MS analysis. Type of series: ADME, cell-based, Sus scrofa. The following applies: dose 0.1-1 µM.
Series [11] deals with mouse Bcrp. Put plainly: Efflux ratio of apparent permeability across basolateral to apical over apical to basolateral side in mouse Bcrp-transfected dog MDCK-II cells at 0.1 to 1 uM measured after 3 hrs by LC/MS/MS analysis. It is filed as ADME, cell-based, Canis lupus familiaris. Particulars: dose 0.1-1 µM.
Series [12] in a line: Intrinsic clearance in dog hepatocytes at 0.3 uM incubated for 90 mins by LC/MS/MS analysis. Type of series: ADME, cell-based, Canis lupus familiaris, Hepatocyte. Particulars: read-out: CLH.
A short description of series [13]: Unbound brain-to-plasma concentration ratio in rat at 2.5 uM incubated for 4 hrs by equilibrium dialysis method. It is filed as ADME, cell-free. The following applies: brain and plasma (unbound), read-out: K(p,uu,brain). (Equilibrium dialysis compares concentrations on both sides of a semipermeable membrane.)
Series [14] can be described thus: Total plasma clearance in Wistar Han rat at 2 mg/kg, iv by LC-MS/MS analysis. Type of series: ADME, organism-based.
The nature of series [15]: MRT in Wistar Han rat at 2 mg/kg, iv by LC-MS/MS analysis. Type of series: ADME, organism-based. The following applies: in vivo.
Series [16] in a line: Oral bioavailability in Wistar Han rat at 10 mg/kg by LC-MS/MS analysis. It is filed as ADME, organism-based. The following applies: in vivo.
A short description of series [17]: Intrinsic clearance in Wistar Han rat at 2 mg/kg, iv by LC-MS/MS analysis. It is filed as ADME, organism-based. The following applies: in vivo.
Series [18] is described as follows: MRT in Beagle dog at 2 mg/kg, iv by LC-MS/MS analysis. Particulars: in vivo. It is filed as ADME, organism-based, Canis lupus familiaris.
A short description of series [19]: Oral bioavailability in Beagle dog by LC-MS/MS analysis. It is filed as ADME, organism-based, Canis lupus familiaris. The following applies: in vivo.
The nature of series [20]: Total plasma clearance in Beagle dog at 2 mg/kg, iv by LC-MS/MS analysis. It is filed as ADME, organism-based, Canis lupus familiaris.
Series [21] can be described thus: Intrinsic clearance in Beagle dog at 2 mg/kg, iv by LC-MS/MS analysis. Type of series: ADME, organism-based, Canis lupus familiaris. The following applies: in vivo.
Series [22] in a line: Lipophilicity, logD of the compound by HPLC analysis. It is filed as physicochemical.
For series [23], the target named is Leucine-rich repeat serine/threonine-protein kinase 2 (Homo sapiens) (UniProt Q5S007). The series can be described thus: Ex vivo inhibition of LRRK2 in human PBMC assessed as unbound concentration required for reduction in LRRK2 phosphorylation at Ser935 residue incubated for 90 mins by MSD assay. Type of series: cell-based.
Leucine-rich repeat serine/threonine-protein kinase 2 (Homo sapiens), sequence (Q5S007 whole entry): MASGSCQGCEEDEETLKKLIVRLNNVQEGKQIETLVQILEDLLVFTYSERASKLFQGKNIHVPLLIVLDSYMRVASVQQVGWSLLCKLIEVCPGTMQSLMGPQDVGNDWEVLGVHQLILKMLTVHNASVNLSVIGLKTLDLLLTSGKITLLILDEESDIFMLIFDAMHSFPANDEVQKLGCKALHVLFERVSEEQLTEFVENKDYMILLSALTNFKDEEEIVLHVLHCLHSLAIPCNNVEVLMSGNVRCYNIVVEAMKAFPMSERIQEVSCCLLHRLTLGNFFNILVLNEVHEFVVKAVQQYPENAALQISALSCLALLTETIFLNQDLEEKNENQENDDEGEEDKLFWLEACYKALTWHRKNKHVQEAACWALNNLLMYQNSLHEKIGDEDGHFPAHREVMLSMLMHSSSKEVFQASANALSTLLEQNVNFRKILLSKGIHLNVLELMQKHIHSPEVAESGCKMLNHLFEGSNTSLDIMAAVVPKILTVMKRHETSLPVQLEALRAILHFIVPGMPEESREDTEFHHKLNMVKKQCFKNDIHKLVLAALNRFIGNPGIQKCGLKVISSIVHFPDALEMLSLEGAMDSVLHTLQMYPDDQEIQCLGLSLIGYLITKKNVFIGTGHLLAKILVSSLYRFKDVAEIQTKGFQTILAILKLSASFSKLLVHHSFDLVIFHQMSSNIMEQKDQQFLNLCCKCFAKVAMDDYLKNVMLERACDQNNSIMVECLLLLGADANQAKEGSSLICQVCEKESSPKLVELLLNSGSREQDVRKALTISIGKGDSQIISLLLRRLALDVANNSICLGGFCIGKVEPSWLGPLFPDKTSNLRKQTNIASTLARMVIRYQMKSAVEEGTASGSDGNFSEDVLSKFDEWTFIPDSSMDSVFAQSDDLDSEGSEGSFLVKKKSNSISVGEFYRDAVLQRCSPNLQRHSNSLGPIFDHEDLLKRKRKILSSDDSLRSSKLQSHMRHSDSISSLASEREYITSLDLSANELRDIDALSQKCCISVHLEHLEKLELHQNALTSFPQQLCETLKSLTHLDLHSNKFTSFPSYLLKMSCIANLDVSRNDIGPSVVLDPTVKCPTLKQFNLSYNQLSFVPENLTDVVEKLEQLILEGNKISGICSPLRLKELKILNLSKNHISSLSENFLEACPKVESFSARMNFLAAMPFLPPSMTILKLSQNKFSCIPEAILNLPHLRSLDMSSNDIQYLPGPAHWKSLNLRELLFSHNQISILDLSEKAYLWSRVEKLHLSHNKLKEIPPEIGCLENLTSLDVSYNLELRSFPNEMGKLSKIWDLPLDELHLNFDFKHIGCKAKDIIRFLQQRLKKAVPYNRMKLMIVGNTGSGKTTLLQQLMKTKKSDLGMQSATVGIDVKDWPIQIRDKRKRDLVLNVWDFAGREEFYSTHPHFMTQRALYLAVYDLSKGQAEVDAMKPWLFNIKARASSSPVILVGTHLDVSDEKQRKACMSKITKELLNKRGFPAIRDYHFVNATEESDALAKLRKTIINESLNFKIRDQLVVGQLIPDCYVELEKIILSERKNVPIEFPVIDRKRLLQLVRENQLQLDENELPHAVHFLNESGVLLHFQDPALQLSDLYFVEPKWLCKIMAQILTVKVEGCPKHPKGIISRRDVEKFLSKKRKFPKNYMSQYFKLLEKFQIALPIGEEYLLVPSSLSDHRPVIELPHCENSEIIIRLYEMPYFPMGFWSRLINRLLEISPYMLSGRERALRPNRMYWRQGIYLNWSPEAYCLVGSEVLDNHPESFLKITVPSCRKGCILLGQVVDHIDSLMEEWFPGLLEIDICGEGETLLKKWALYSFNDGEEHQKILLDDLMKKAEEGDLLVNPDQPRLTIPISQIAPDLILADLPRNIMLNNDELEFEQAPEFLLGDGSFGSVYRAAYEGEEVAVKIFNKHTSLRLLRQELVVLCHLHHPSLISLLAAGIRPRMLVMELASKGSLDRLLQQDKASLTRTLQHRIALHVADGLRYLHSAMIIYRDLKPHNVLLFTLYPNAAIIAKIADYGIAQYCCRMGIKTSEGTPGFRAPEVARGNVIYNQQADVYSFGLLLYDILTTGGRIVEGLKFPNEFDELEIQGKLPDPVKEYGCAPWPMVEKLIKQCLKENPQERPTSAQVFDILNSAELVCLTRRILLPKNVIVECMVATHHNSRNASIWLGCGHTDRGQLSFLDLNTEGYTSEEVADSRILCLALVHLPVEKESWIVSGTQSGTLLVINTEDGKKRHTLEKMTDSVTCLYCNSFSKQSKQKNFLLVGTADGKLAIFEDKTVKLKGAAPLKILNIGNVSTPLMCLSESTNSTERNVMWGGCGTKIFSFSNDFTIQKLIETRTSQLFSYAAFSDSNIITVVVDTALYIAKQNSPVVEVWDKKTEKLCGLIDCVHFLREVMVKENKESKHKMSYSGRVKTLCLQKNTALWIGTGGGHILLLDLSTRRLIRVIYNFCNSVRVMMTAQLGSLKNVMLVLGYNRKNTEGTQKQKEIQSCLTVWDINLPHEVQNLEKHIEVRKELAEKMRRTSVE
Series [24] in a line: Dissociation constant, pKa of the compound. It is filed as physicochemical.

Leucine-rich repeat serine/threonine-protein kinase 2 (Homo sapiens), Q5S007 [G2019S], sequence (Q5S007 whole entry G2019S): as the sequence (Q5S007 whole entry) above, with G2019S counted along it
Leucine-rich repeat serine/threonine-protein kinase 2, sequence (Q5S007 whole entry G2019S, the tested form may be a part): as the sequence (Q5S007 whole entry) above, with G2019S counted along it
Voltage-gated inwardly rectifying potassium channel KCNH2, sequence (Q12809 whole entry): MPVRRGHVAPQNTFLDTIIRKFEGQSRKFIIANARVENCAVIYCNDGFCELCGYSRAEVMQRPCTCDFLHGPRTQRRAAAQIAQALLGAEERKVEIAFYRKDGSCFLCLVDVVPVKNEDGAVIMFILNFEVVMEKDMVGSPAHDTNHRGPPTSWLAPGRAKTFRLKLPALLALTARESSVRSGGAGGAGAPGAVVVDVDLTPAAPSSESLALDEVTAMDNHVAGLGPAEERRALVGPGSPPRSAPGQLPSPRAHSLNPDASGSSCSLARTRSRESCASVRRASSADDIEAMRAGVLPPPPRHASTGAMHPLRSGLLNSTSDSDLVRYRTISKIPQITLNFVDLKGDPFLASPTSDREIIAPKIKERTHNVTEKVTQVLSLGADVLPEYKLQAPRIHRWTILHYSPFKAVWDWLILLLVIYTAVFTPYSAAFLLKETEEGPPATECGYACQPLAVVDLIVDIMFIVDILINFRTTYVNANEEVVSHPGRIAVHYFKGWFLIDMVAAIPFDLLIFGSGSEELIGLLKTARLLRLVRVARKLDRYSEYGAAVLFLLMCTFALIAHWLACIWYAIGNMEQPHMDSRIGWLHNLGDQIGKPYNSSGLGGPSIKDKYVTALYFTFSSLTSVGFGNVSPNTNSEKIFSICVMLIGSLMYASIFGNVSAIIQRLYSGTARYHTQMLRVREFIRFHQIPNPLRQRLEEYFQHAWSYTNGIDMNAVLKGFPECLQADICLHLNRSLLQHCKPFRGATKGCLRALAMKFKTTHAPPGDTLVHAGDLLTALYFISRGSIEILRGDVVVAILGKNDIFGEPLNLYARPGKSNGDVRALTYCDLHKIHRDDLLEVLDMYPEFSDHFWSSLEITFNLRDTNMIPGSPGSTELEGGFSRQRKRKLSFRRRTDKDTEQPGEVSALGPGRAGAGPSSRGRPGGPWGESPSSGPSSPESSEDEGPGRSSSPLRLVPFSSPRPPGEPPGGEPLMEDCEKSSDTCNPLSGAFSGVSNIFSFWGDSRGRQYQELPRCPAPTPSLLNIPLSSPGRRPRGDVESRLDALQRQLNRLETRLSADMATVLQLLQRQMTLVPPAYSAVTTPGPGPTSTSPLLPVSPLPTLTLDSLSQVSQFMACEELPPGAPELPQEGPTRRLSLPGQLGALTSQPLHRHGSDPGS

In the case of `FC1CN(C2COC2)CCC1c1cc2nc(Nc3cnn(C4CC4(F)F)c3Cl)ncc2cc1Cl` (stereo not given), the MRT in series [1] came to 2.7 h. Further, in series [2], the fIC50 came out at 6.1 nM. Besides, the clearance in series [3] was determined as 20 mL/min/kg. The efflux ratio at 3 h, up to 1 µM in series [4] was 1.2. The compound also came in with a CL in [5] of 1545 mL/min/kg. For the same compound, the IC50 in series [6] was below 0.6 nM; in series [8], 18300 nM. The figures for the CLint scaled at 0.3 µM in series [7] and in [9] were 210 mL/min/kg and 186 mL/min/kg, respectively. Further, the Papp A→B at 3 h, up to 1 µM in series [10] stood at 31 ×10⁻⁶ cm/s.
Turning to `FC1CN(C2COC2)CCC1c1cc2nc(Nc3cnn(C4CC4)c3Cl)ncc2cc1Cl` (stereo not given), the fIC50 in series [2] worked out at 4.3 nM. For the same compound, the efflux ratio at 3 h, up to 1 µM in series [11] and in series [4] was 1.3 throughout. Moreover, the CLint scaled at 0.3 µM in series [12] was determined as 1300 mL/min/kg; in series [7], 329 mL/min/kg; in [9], 175 mL/min/kg. Besides, the Kp uu at 4 h, 2.5 µM in [13] came out at 0.5. The compound also had a clearance in series [14] of 18 mL/min/kg. The MRT in [15] amounted to 3.8 h. The values for the IC50 in series [6] and in [8] were below 0.6 nM and 14000 nM, respectively. The bioavailability in series [16] amounted to 54%. For the same compound, the CL in series [17] came to 1200 mL/min/kg. Moreover, the Papp A→B at 3 h, up to 1 µM in series [10] amounted to 32 ×10⁻⁶ cm/s.
On to `Cc1c(Nc2ncc3ccc(C4CCN(C5COC5)CC4)cc3n2)cnn1C1CCOCC1`, for which, in series [6], the IC50 was determined as 6800 nM.
On to `c1cc(C2CC2)c2nc(Nc3cnn(C4CCOCC4)c3)ncc2c1`, for which the fIC50 in series [2] was 90 nM. The IC50 in series [6] amounted to 15 nM.
As for `Cc1c(Nc2ncc3ccc(C4(C#N)CC45CC5)cc3n2)cnn1C1CCOCC1` (stereo not given), the fIC50 in series [2] is 6.9 nM. Further, the efflux ratio at 3 h, up to 1 µM in series [4] came out at 7.2. In [6], the IC50 was below 0.6 nM. In addition, the Papp A→B at 3 h, up to 1 µM in series [10] was 34 ×10⁻⁶ cm/s.
Regarding `Cc1c(Nc2ncc3cc(Cl)c(C4CCN(C5COC5)CC4)cc3n2)cnn1C1CC1`, in [2], the fIC50 is 9.9 nM. The efflux ratio at 3 h, up to 1 µM in series [11] came out at 4.2; in series [4], 3. Moreover, the MRT is 2 h in series [18] and 2.1 h in [15]. In addition, the bioavailability is 38% in series [19] and 26% in series [16]. Moreover, the clearance in series [20] is 23 mL/min/kg; in [14], 14 mL/min/kg. Moreover, the CLint scaled at 0.3 µM was 294 mL/min/kg in series [12], 457 mL/min/kg in series [7] and 49 mL/min/kg in series [9]. For the same compound, the results for the CL in series [21] and in series [17] were 477 mL/min/kg and 260 mL/min/kg, respectively. For the same compound, the Kp uu at 4 h, 2.5 µM in series [13] worked out at 0.2. For the same compound, the values for the IC50 in series [6] and in [8] were 0.65 nM and 15000 nM, respectively. Besides, the Papp A→B at 3 h, up to 1 µM in series [10] was found to be 35 ×10⁻⁶ cm/s.
`Cc1c(Nc2ncc3ccc(N4C(=O)OC[C@@H]4C)cc3n2)cnn1C1CCOCC1` came in with a mean residence time MRT in series [1] of 1.6 h. The fIC50 in [2] came to 3.2 nM. In addition, the pH-dependent lipophilicity (logD) in series [22] came out at 1.4. For the same compound, in series [3], the clearance was found to be 9 mL/min/kg. Besides, the efflux ratio at 3 h, up to 1 µM in series [4] turned out to be 35. The CL in series [5] worked out at 26 mL/min/kg. For the same compound, in series [6], the IC50 was below 0.6 nM. Besides, the CLint scaled at 0.3 µM was 17 mL/min/kg in series [7] and below 6 mL/min/kg in [9]. The apical-to-basolateral permeability (Papp A→B) at 3 h, up to 1 µM in series [10] amounted to 27 ×10⁻⁶ cm/s.
Regarding `FC1CN(C2COCC2F)CCC1c1cc2nc(Nc3cnn(C4CC4(F)F)c3Cl)ncc2cc1Cl` (stereo not given), in series [1], the MRT stood at 4.8 h. In addition, the fIC50 in series [2] was 1.9 nM. In addition, the clearance in [3] is 12 mL/min/kg. Moreover, the efflux ratio at 3 h, up to 1 µM in [4] was 1.6. Moreover, the CL in series [5] stood at 2771 mL/min/kg. In addition, the IC50 in series [6] was below 0.6 nM; in [8] it was 8600 nM. The CLint scaled at 0.3 µM in series [7] worked out at 956 mL/min/kg; in series [9], 720 mL/min/kg. In series [10], the Papp A→B at 3 h, up to 1 µM was 23 ×10⁻⁶ cm/s.
`F[C@@H]1CNCC[C@H]1c1cc2nc(Nc3cnn([C@@H]4CC4(F)F)c3Cl)ncc2cc1Cl`: the MRT in [1] worked out at 1.8 h. This compound also returned a clearance in series [3] of 22 mL/min/kg. In series [23], the fIC50 was found to be 9 nM. In series [5], this compound displayed a CL of 1890 mL/min/kg. This compound also gave a pKa in series [24] of 7.79. The compound further had an IC50 in [8] of 570 nM.
